From US20080318933A1, “5-Sulfonyl-1-Piperidinyl Substituted Indole Derivatives as 5-Ht6 Receptor Antagonists for the Treatment of Cns Disorders” (Glaxo Group Limited, priority 2004, published 2008)
Structures can show the parent of a compound that is named as a salt.

Molecular target: T1, human cloned 5-HT6 receptors (Homo sapiens, UniProt P50406)
T1 construct: expressed in transfected cells; host or cells: HeLa cells expressing cloned human 5-HT6 receptor (membranes)
Experiment: Cyclase assay (cAMP production in membranes of HeLa 5HT6 cells, 5-HT stimulated)
Assay type: biochemical
Conditions: 5-HT at 4xEC50, functional Ki by Cheng-Prusoff, read-out: pKi values (converted)
Protocol: 0.5 μl of test compound in 100% dimethylsulfoxide (DMSO) was added to a white, solid 384 well assay plate (for dose response measurements the top of the concentration range is 7.5 μM final). 10 μl of washed membranes of HeLa 5HT6 cells (for preparation see WO 98/27081) in basic buffer (50 mM HEPES pH 7.4 (KOH), 10 mM MgCl2, 100 mM NaCl, 10 μM 3-isobutyl-1-methylxanthine (IBMX) (Sigma-Aldrich)) was added to all wells followed by 10 μl 2×ATP buffer (i.e. basic buffer containing 3 mM ATP) with 5-HT (at a concentration equivalent to a dose response of 4×EC50). The resultant mixture was then incubated at room temperature for 30-45 minutes to allow cAMP production. cAMP production was then measured using the DiscoveRX™ HitHunter™ chemiluminescence cAMP assay kit (DiscoveRx Corporation, 42501 Albrae Street, Fremont, Calif. 94538; Product Code: 90-0004L) or any other suitable cAMP measurement assay.
IC50 values were estimated from arbitrary designated unit (ADU) measurements from a Perkin Elmer Viewlux instrument using a four parameter logistic curve fit within EXCEL (Bowen, W. P. and Jerman, J. C. (1995), Nonlinear regression using spreadsheets. Trends in Pharmacol. Sci., 16, 413-417). Functional Ki values were calculated using the method of Cheng, Y. C. and Prussof, W. H. (Biochemical Pharmacol (1973) 22 3099-3108). plC50 and fpKi are the negative log 10 of the molar IC50 and functional Ki respectively.

T1 sequence (P50406 whole entry): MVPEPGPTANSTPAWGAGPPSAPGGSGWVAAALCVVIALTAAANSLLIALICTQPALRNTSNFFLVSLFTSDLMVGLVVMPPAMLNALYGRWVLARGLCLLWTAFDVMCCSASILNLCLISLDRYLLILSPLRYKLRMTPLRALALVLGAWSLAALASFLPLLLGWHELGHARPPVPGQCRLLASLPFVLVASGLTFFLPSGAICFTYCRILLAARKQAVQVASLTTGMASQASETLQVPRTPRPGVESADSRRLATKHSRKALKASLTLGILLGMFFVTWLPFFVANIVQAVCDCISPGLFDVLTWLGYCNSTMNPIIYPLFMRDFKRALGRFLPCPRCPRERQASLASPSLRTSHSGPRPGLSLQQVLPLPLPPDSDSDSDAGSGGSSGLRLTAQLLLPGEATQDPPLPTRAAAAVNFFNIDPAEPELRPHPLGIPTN

Compound | Ki [nM]
CN1CCC(N2CCc3cc(S(=O)(=O)c4ccc(F)cc4)ccc32)CC1 [Example E41, 5-[(4-Fluorophenyl)sulfonyl]-1-(1-methyl-4-piperidinyl)-2,3-dihydro-1H-indole hydrochloride] | ≤ 10
CCN1CCC(N2CCc3cc(S(=O)(=O)c4cc(F)ccc4F)ccc32)CC1 [Example E42, 5-[(2,5-Difluorophenyl)sulfonyl]-1-(1-ethyl-4-piperidinyl)-2,3-dihydro-1H-indole hydrochloride] | ≤ 10
CC(C)N1CCC(N2CCc3cc(S(=O)(=O)c4cc(F)ccc4F)ccc32)CC1 [Example E43, 5-[(2,5-Difluorophenyl)sulfonyl]-1-[1-(1-methylethyl)-4-piperidinyl]-2,3-dihydro-1H-indole hydrochloride] | ≤ 10
CC(C)N1CCC(N2CCc3cc(S(=O)(=O)c4ccccc4F)ccc32)CC1 [Example E45, 5-[(2-Fluorophenyl)sulfonyl]-1-[1-(1-methylethyl)-4-piperidinyl]-2,3-dihydro-1H-indole hydrochloride] | ≤ 10
CN1CCC(N2CCc3cc(S(=O)(=O)c4cccc(F)c4)ccc32)CC1 [Example E47, 5-[(3-Fluorophenyl)sulfonyl]-1-(1-methyl-4-piperidinyl)-2,3-dihydro-1H-indole hydrochloride] | ≤ 10
CN1CCC(N2CCc3cc(S(=O)(=O)c4ccccc4F)ccc32)CC1 [Example E48, 5-[(2-Fluorophenyl)sulfonyl]-1-(1-methyl-4-piperidinyl)-2,3-dihydro-1H-indole hydrochloride] | ≤ 10
CN1CCC(N2CCc3cc(S(=O)(=O)c4cc(F)cc(F)c4)ccc32)CC1 [Example E50, 5-[(3,5-Difluorophenyl)sulfonyl]-1-(1-methyl-4-piperidinyl)-2,3-dihydro-1H-indole hydrochloride] | ≤ 10
CCN1CCC(N2CCc3cc(S(=O)(=O)c4cc(F)cc(F)c4)ccc32)CC1 [Example E51, 5-[(3,5-Difluorophenyl)sulfonyl]-1-(1-ethyl-4-piperidinyl)-2,3-dihydro-1H-indole hydrochloride] | ≤ 10
CC(C)N1CCC(N2CCc3cc(S(=O)(=O)c4cc(F)cc(F)c4)ccc32)CC1 [Example E52, 5-[(3,5-Difluorophenyl)sulfonyl]-1-[1-(1-methylethyl)-4-piperidinyl)-2,3-dihydro-1H-indole hydrochloride] | ≤ 10
CN1CCC(N2CCc3cc(S(=O)(=O)c4cccc(Cl)c4)ccc32)CC1 [Example E53, 5-[(3-Chlorophenyl)sulfonyl]-1-(1-methyl-4-piperidinyl)-2,3-dihydro-1H-indole hydrochloride] | ≤ 10
CC(C)N1CCC(N2CCc3cc(S(=O)(=O)c4cccc(F)c4)ccc32)CC1 [Example E57, 5-[(3-Fluorophenyl)sulfonyl]-1-(1-(1-methylethyl)-4-piperidinyl)-2,3-dihydro-1H-indole hydrochloride] | ≤ 10
CN1CCC(N2CCc3cc(S(=O)(=O)c4ccc(F)c(F)c4)ccc32)CC1 [Example E59, 5-[(3,4-Difluorophenyl)sulfonyl]-1-(1-methyl-4-piperidinyl)-2,3-dihydro-1H-indole hydrochloride] | ≤ 10
CCN1CCC(N2CCc3cc(S(=O)(=O)c4ccc(F)c(F)c4)ccc32)CC1 [Example E60, 5-[(3,4-Difluorophenyl)sulfonyl]-1-(1-ethyl-4-piperidinyl)-2,3-dihydro-1H-indole hydrochloride] | ≤ 10
Cc1cn(C2CCNCC2)c2ccc(S(=O)(=O)c3ccccc3)cc12 [Example E65, 3-Methyl-5-(phenylsulfonyl)-1-(4-piperidinyl)-1H-indole hydrochloride] | ≤ 10

More lines, now with the values ahead:

Ki [nM] | Compound
≤ 10 | CCN1CCC(N2CCc3cc(S(=O)(=O)c4ccccc4)ccc32)CC1 [Example E39, 1-(1-Ethyl-4-piperidinyl)-5-(phenylsulfonyl)-2,3-dihydro-1H-indole hydrochloride]
≤ 10 | CCCN1CCC(N2CCc3cc(S(=O)(=O)c4ccccc4)ccc32)CC1 [Example E40, 5-(Phenylsulfonyl)-1-(1-propyl-4-piperidinyl)-2,3-dihydro-1H-indole hydrochloride]
≤ 10 | CCCN1CCC(N2CCc3cc(S(=O)(=O)c4cc(F)ccc4F)ccc32)CC1 [Example E44, 5-[(2,5-Difluorophenyl)sulfonyl]-1-(1-propyl-4-piperidinyl)-2,3-dihydro-1H-indole hydrochloride]
≤ 10 | CCCN1CCC(N2CCc3cc(S(=O)(=O)c4ccccc4F)ccc32)CC1 [Example E46, 5-[(2-Fluorophenyl)sulfonyl]-1-(1-propyl-4-piperidinyl)-2,3-dihydro-1H-indole hydrochloride]
≤ 10 | CN1CCC(N2CCc3cc(S(=O)(=O)c4ccccc4Cl)ccc32)CC1 [Example E49, 5-[(2-Chlorophenyl)sulfonyl]-1-(1-methyl-4-piperidinyl)-2,3-dihydro-1H-indole hydrochloride]
≤ 10 | CCN1CCC(N2CCc3cc(S(=O)(=O)c4cccc(Cl)c4)ccc32)CC1 [Example E54, 5-[((3-Chlorophenyl)sulfonyl]-1-(1-ethyl-4-piperidinyl)-2,3-dihydro-1H-indole hydrochloride]
≤ 10 | CCN1CCC(N2CCc3cc(S(=O)(=O)c4cccc(F)c4)ccc32)CC1 [Example E55, 5-[(3-Fluorophenyl)sulfonyl]-1-(1-ethyl-4-piperidinyl)-2,3-dihydro-1H-indole hydrochloride]
≤ 10 | CCCN1CCC(N2CCc3cc(S(=O)(=O)c4cccc(F)c4)ccc32)CC1 [Example E56, 5-[(3-Fluorophenyl)sulfonyl]-1-(1-propyl-4-piperidinyl)-2,3-dihydro-1H-indole hydrochloride]
≤ 10 | CCN1CCC(N2CCc3cc(S(=O)(=O)c4ccccc4F)ccc32)CC1 [Example E58, 5-[(2-Fluorophenyl)sulfonyl]-1-(1-ethyl-4-piperidinyl)-2,3-dihydro-1H-indole hydrochloride]
≤ 10 | CCN1CCC(N2CCc3cc(S(=O)(=O)c4cccc(C)c4)ccc32)CC1 [Example E63, 5-[(3-Methylphenyl)sulfonyl]-1-(1-ethyl-4-piperidinyl)-2,3-dihydro-1H-indole hydrochloride]
≤ 10 | CCCN1CCC(N2CCc3cc(S(=O)(=O)c4cccc(C)c4)ccc32)CC1 [Example E64, 5-[(3-Methylphenyl)sulfonyl]-1-(1-propyl-4-piperidinyl)-2,3-dihydro-1H-indole hydrochloride]
